{
  "source": "patent US20230413825A1",
  "about": "“SHORT AND LONG TERM DIS[…] ALCOHOL AND ZINC PYRITHIONE” (CAO Group, Inc., priority 2020, published 2023)",
  "from_the_text": "The present invention also utilizes the salts of pyrithione, especially the zinc salt.",
  "note": "Like-named read-outs stand apart in the source and are kept apart here.",
  "data": [
    {"substance": "Zinc pyrithione", "values": [
      {"measurement": "solubility", "setting": "in solution in an admixture of alcohols and water", "result": "about 60 ppm"},
      {"measurement": "solubility", "setting": "in water", "result": "about 8 ppm"}
    ]}
  ]
}
